Where “and” joins values, the source holds several entries; their conditions need not be identical. Equal entries are not always repeated.
Target: T1, CETP (Homo sapiens, UniProt P11597)
T1 construct: from tissue; host or cells: human plasma from normal volunteers
T1 sequence (P11597 18-493): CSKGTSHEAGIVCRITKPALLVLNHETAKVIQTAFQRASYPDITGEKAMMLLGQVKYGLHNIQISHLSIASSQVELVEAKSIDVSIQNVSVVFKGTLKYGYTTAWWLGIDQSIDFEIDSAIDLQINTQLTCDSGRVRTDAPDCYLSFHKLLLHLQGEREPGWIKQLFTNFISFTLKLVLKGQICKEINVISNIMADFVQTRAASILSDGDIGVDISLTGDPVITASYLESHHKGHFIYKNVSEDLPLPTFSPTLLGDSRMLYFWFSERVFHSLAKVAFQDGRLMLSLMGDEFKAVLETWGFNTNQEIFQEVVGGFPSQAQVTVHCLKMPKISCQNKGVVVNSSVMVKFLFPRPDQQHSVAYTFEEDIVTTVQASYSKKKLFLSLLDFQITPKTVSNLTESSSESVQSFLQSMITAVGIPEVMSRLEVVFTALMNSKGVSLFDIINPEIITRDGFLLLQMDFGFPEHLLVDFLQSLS
Experiment: CETP in vitro assay ([3H]CE-HDL transfer, Amersham kit TRKQ7005; modified protocol in human plasma)
Format: biochemical
Conditions: multiple values = multiple measurements; for inhibition at 1 µM / % Inhibition @ 1 μM: 1 μM compound
Method: The CETP inhibitory activity of the compounds was determined using a commercially available kit from Amersham Biosciences (Catalog #TRKQ7005).
For the measurement of inhibitory activity in human plasma, a modified protocol (Connolly, D. T. et al., Biochemistry, 39 13870-13879, 2000) was used. Briefly, 80 μl of human plasma (obtained from normal volunteers), approximately 25 μg/ml (200) of [^3H]CE-HDL (Amersham Biosciences from kit TRKQ7005) and 1 μl of compound dissolved in DMSO was incubated for at least 4 hrs at 37° C. and non-specific transfer was determined by incubating a corresponding plate at 4° C. (blank). After the incubation period, 100 of a solution of 1% Dextralip 50/0.5M MgCl2, pH 7.4 was added, vortexed and incubated at room temperature for 10 min. The plate was then centrifuged for 30 min at 10° C. at 3000 rpm in a Sorvall RT6000B centrifuge. Fifty microliters of the supernatant was transferred to a Picoplate (Packard) containing 100 μl of Microscint 40 (Perkin Elmer) and mixed for 30 min using a plate mixer. The radioactivity was counted using a TopCount (Perkin Elmer) and the % control was determined in the samples using the following formula: % transfer relative to vehicle controls (% control)=[cpm blank-cpm test]/cpm blank/cpm control]×100. IC50s were calculated from plots of the % control versus compound concentration.
A variety of example compounds have been made and tested, with a range of in vitro results. Below, in Table 2, are representative compounds and the corresponding data; in some cases, where multiple IC50's are shown, multiple measurements were taken. Naturally, different compounds in Formula (I), (Ia), (Ib) and (Ic) may have not activities identical to any one compound below.

inhibition at 1 µM [%]	% Inhibition @ 1 μM [%]	IC50	SMILES
0			CN1c2cccc(-c3cccc(OC(F)(F)F)c3)c2OCC1c1cccc(OC(F)(F)C(F)F)c1 (centres unmarked) [Compound 32, 4-Methyl-3-[3-(1,1,2,2-tetrafluoro-ethoxy)-phenyl]-8-(3-trifluoromethoxy-phenyl)-3,4-dihydro-2H-benzo[1,4]oxazine]
24			CCN1c2cccc(-c3cccc(OC(F)(F)F)c3)c2OCC1c1cccc(OC(F)(F)C(F)F)c1 (centres unmarked) [Compound 33, 4-Ethyl-3-[3-(1,1,2,2-tetrafluoro-ethoxy)-phenyl]-8-(3-trifluoromethoxy-phenyl)-3,4-dihydro-2H-benzo[1,4]oxazine]
38	39	190 nM	CCCN1c2cccc(-c3cccc(OC(F)(F)F)c3)c2OCC1c1cccc(OC(F)(F)C(F)F)c1 (centres unmarked) [Compound 34, 4-Propyl-3-[3-(1,1,2,2-tetrafluoro-ethoxy)-phenyl]-8-(3-trifluoromethoxy-phenyl)-3,4-dihydro-2H-benzo[1,4]oxazine]
47	52	26 nM and 117 nM and 121 nM	C[C@@H](O)CN1c2cccc(-c3cccc(OC(F)(F)F)c3)c2OC[C@@H]1c1cccc(OC(F)(F)C(F)F)c1 [Compound 35, 4H-1,4-Benzoxazine-4-ethanol, 2,3-dihydro-α-methyl-3-[3-(1,1,2,2-tetrafluoroethoxy)phenyl]-8-[3-(trifluoromethoxy)phenyl]-, (3S,αR)—]
28			C[C@H](O)CN1c2cccc(-c3cccc(OC(F)(F)F)c3)c2OC[C@@H]1c1cccc(OC(F)(F)C(F)F)c1 [Compound 36, 4H-1,4-Benzoxazine-4-ethanol, 2,3-dihydro-α-methyl-3-[3-(1,1,2,2-tetrafluoroethoxy)phenyl]-8-[3-(trifluoromethoxy)phenyl]-, (3S,αS)—]
5			O=C(CN1c2cccc(-c3cccc(OC(F)(F)F)c3)c2OC[C@@H]1c1cccc(OC(F)(F)C(F)F)c1)C(F)(F)F [Compound 37, 2-Propanone, 3-[(3S)-2,3-dihydro-3-[3-(1,1,2,2-tetrafluoroethoxy)phenyl]-8-[3-(trifluoromethoxy)phenyl]-4H-1,4-benzoxazin-4-yl]-1,1,1-trifluoro-]
5			CC(=O)CN1c2cccc(-c3cccc(OC(F)(F)F)c3)c2OC[C@@H]1c1cccc(OC(F)(F)C(F)F)c1 [Compound 38, 2-Propanone, 1-[(3S)-2,3-dihydro-3-[3-(1,1,2,2-tetrafluoroethoxy)phenyl]-8-[3-(trifluoromethoxy)phenyl]-4H-1,4-benzoxazin-4-yl]-]
2			NCCN1c2cccc(-c3cccc(OC(F)(F)F)c3)c2OCC1c1cccc(OC(F)(F)C(F)F)c1 (centres unmarked) [Compound 39, 2-[3-[3-(1,1,2,2-Tetrafluoro-ethoxy)-phenyl]-8-(3-trifluoromethoxy-phenyl)-2,3-dihydro-benzo[1,4]oxazin-4-yl]-ethylamine]
0			CC(=O)NCCN1c2cccc(-c3cccc(OC(F)(F)F)c3)c2OCC1c1cccc(OC(F)(F)C(F)F)c1 (centres unmarked) [Compound 40, N-{2-[3-[3-(1,1,2,2-Tetrafluoro-ethoxy)-phenyl]-8-(3-trifluoromethoxy-phenyl)-2,3-dihydro-benzo[1,4]oxazin-4-yl]-ethyl}-acetamide]
2			COC(=O)NCCN1c2cccc(-c3cccc(OC(F)(F)F)c3)c2OCC1c1cccc(OC(F)(F)C(F)F)c1 (centres unmarked) [Compound 41, {2-[3-[3-(1,1,2,2-Tetrafluoro-ethoxy)-phenyl]-8-(3-trifluoromethoxy-phenyl)-2,3-dihydro-benzo[1,4]oxazin-4-yl]-ethyl}-carbamic acid methyl ester]
8			COC(=O)N(C)CCN1c2cccc(-c3cccc(OC(F)(F)F)c3)c2OCC1c1cccc(OC(F)(F)C(F)F)c1 (centres unmarked) [Compound 42, Methyl-{2-[3-[3-(1,1,2,2-tetrafluoro-ethoxy)-phenyl]-8-(3-trifluoromethoxy-phenyl)-2,3-dihydro-benzo[1,4]oxazin-4-yl]-ethyl}-carbamic acid methyl ester]
0			CS(=O)(=O)NCCN1c2cccc(-c3cccc(OC(F)(F)F)c3)c2OCC1c1cccc(OC(F)(F)C(F)F)c1 (centres unmarked) [Compound 43, N-{2-[3-[3-(1,1,2,2-Tetrafluoro-ethoxy)-phenyl]-8-(3-trifluoromethoxy-phenyl)-2,3-dihydro-benzo[1,4]oxazin-4-yl]-ethyl}-methanesulfonamide]
0			CN(CCN1c2cccc(-c3cccc(OC(F)(F)F)c3)c2OCC1c1cccc(OC(F)(F)C(F)F)c1)S(C)(=O)=O (centres unmarked) [Compound 44, N-Methyl-N-{2-[3-[3-(1,1,2,2-tetrafluoro-ethoxy)-phenyl]-8-(3-trifluoromethoxy-phenyl)-2,3-dihydro-benzo[1,4]oxazin-4-yl]-ethyl}-methanesulfonamide]
25			CC1(C)OC[C@H](CN2c3cccc(-c4cccc(OC(F)(F)F)c4)c3OC[C@@H]2c2cccc(OC(F)(F)C(F)F)c2)O1 [Compound 45, 2H-1,4-Benzoxazine, 4-[[(4S)-2,2-dimethyl-1,3-dioxolan-4-yl]methyl]-3,4-dihydro-3-[3-(1,1,2,2-tetrafluoroethoxy)phenyl]-8-[3-(trifluoromethoxy)phenyl]-, (3S)—]
20			CC1(C)OC[C@H](CN2c3cccc(-c4cccc(OC(F)(F)F)c4)c3OC[C@H]2c2cccc(OC(F)(F)C(F)F)c2)O1 [Compound 46, 2H-1,4-Benzoxazine, 4-[[(4S)-2,2-dimethyl-1,3-dioxolan-4-yl]methyl]-3,4-dihydro-3-[3-(1,1,2,2-tetrafluoroethoxy)phenyl]-8-[3-(trifluoromethoxy)phenyl]-, (3R)—]
27			OC[C@@H](O)CN1c2cccc(-c3cccc(OC(F)(F)F)c3)c2OC[C@@H]1c1cccc(OC(F)(F)C(F)F)c1 [Compound 47, 1,2-Propanediol, 3-[(3S)-2,3-dihydro-3-[3-(1,1,2,2-tetrafluoroethoxy)phenyl]-8-[3-(trifluoromethoxy)phenyl]-4H-1,4-benzoxazin-4-yl]-, (2S)—]
13			OC[C@@H](O)CN1c2cccc(-c3cccc(OC(F)(F)F)c3)c2OC[C@H]1c1cccc(OC(F)(F)C(F)F)c1 [Compound 48, 1,2-Propanediol, 3-[(3R)-2,3-dihydro-3-[3-(1,1,2,2-tetrafluoroethoxy)phenyl]-8-[3-(trifluoromethoxy)phenyl]-4H-1,4-benzoxazin-4-yl]-, (2S)—]
34	24	560 nM	CC(C)(O)CN1c2cccc(-c3cccc(OC(F)(F)F)c3)c2OCC1c1cccc(OC(F)(F)C(F)F)c1 (centres unmarked) [Compound 49, 2-Methyl-1-[3-[3-(1,1,2,2-tetrafluoro-ethoxy)-phenyl]-8-(3-trifluoromethoxy-phenyl)-2,3-dihydro-benzo[1,4]oxazin-4-yl]-propan-2-ol]
	10		C=CCC1COc2c(-c3cccc(OC(F)(F)F)c3)cccc2N1CC(O)C(F)(F)F (centres unmarked) [Compound 50, 3-[3-Allyl-8-(3-trifluoromethoxy-phenyl)-2,3-dihydro-benzo[1,4]oxazin-4-yl]-1,1,1-trifluoro-propan-2-ol]
	0		C=CCC1COc2c(-c3cccc(OC(F)(F)F)c3)cccc2N1CC(O)C(F)(F)F (centres unmarked) [Compound 51, 3-[3-Allyl-8-(3-trifluoromethoxy-phenyl)-2,3-dihydro-benzo[1,4]oxazin-4-yl]-1,1,1-trifluoro-propan-2-ol]

— patent publication US8012963B2, “3,4-dihydro-2H-benzo[1,4]oxazine and thiazine derivatives as CETP inhibitors” (Janssen Pharmaceutica N.V., priority 2006, dated 2011)
